What was measured:
hIAPP = biological target: T1, hIAPP (Homo sapiens, UniProt P10997); assay: CD spectroscopy of hIAPP aggregated with the tested molecules; conditions: increasing doses up to 5-fold molar excess
T1 construct: hIAPP is a 37-amino acid neuroendocrine peptide hormone; purchased Peptide 2.0 (USA)
T1 sequence (P10997 34-70 limits assumed): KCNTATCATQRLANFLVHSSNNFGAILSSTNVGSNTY
Experimental: CD analysis was performed also for hIAPP (Fig. 2f and Supplementary Fig. 5). […] With different degrees of effectiveness, the presence of all tested hybrid molecules caused a reduction of the intensity of the CD signal, indicating an overall lower of β-sheet content of hIAPP (Fig. 2f and Supplementary Fig. 5).
(§1) The blank was subtracted from the acquired CD spectra. For the CD study in the presence of the tryptophan-galacosylamine molecules, the spectra of hybrid molecules were also recorded separately and subtracted from the respective sample spectra. The normalized data were plotted using Origin pro 2015 software.

[1] = biological target: T2, pre-formed fibrils of hIAPP (Homo sapiens, UniProt P10997); assay: CD spectroscopy of pre-formed hIAPP fibrils with the tested molecules; conditions: hIAPP : molecule (1:5)
T2 construct: hIAPP is a 37-amino acid neuroendocrine peptide hormone; purchased Peptide 2.0 (USA)
T2 sequence (P10997 34-70 limits assumed): T1 sequence (P10997 34-70 limits assumed)
Experimental: For efficient treatment of proteinopathies it may be advantageous to disassemble amyloid aggregates/fibrils which are usually already present at the time of diagnosis[75]–[77]. […] Then, various doses of the hybrid molecules were added to the pre-formed fibrils and the mixtures were incubated for additional 10 h. The process of disaggregation was monitored by ThT-binding assay, CD spectroscopy, TEM and Congo red staining (Fig. 5).
as §1

In the case of NC(Cc1c[nH]c2ccccc12)C(=O)NC(Cc1c[nH]c2ccccc12)C(=O)O (centres unmarked) [WW], the “effect on hIAPP secondary structure (CD), in words” value (hIAPP) is reported as “substantial effect”, the “Normalized CD spectra” value ([1]; wavelength 190.00) is reported as -1159830.00 and the “Normalized CD spectra” value ([1]; wavelength 190.50) is reported as -799592.59. The “Normalized CD spectra” value ([1]; wavelength 191.00) was -466296.57, the “Normalized CD spectra” value ([1]; wavelength 191.50) was -159943.13 and the “Normalized CD spectra” value ([1]; wavelength 192.00) was 119467.75. For the same compound, the “Normalized CD spectra” value ([1]; wavelength 192.50) was 371936.05, the “Normalized CD spectra” value ([1]; wavelength 193.00) was 597461.77 and the “Normalized CD spectra” value ([1]; wavelength 193.50) was 796044.93. The “Normalized CD spectra” value ([1]; wavelength 194.00) was 967685.51, the “Normalized CD spectra” value ([1]; wavelength 194.50) was 1212380.23 and the “Normalized CD spectra” value ([1]; wavelength 195.00) was 1290140.24. The “Normalized CD spectra” value ([1]; wavelength 195.50) was 1323180.24, the “Normalized CD spectra” value ([1]; wavelength 196.00) was 1393960.26 and the “Normalized CD spectra” value ([1]; wavelength 196.50) was 1424490.23. For the same compound, the “Normalized CD spectra” value ([1]; wavelength 197.00) was 1413320.40, the “Normalized CD spectra” value ([1]; wavelength 197.50) was 1387150.18 and the “Normalized CD spectra” value ([1]; wavelength 198.00) was 1299100.11. For the same compound, the “Normalized CD spectra” value ([1]; wavelength 198.50) was 1256630.40, the “Normalized CD spectra” value ([1]; wavelength 199.00) was 1187490.08 and the “Normalized CD spectra” value ([1]; wavelength 199.50) was 1142090.27. The “Normalized CD spectra” value ([1]; wavelength 200.00) was 1101290.79, the “Normalized CD spectra” value ([1]; wavelength 200.50) was 1045740.12 and the “Normalized CD spectra” value ([1]; wavelength 201.00) was 960554.59. The “Normalized CD spectra” value ([1]; wavelength 201.50) was 884170.56, the “Normalized CD spectra” value ([1]; wavelength 202.00) was 793224.29 and the “Normalized CD spectra” value ([1]; wavelength 202.50) was 710397.29. The “Normalized CD spectra” value ([1]; wavelength 203.00) was 623023.93, the “Normalized CD spectra” value ([1]; wavelength 203.50) was 548091.19 and the “Normalized CD spectra” value ([1]; wavelength 204.00) was 460178.98. The “Normalized CD spectra” value ([1]; wavelength 204.50) was 362812.96, the “Normalized CD spectra” value ([1]; wavelength 205.00) was 267913.28 and the “Normalized CD spectra” value ([1]; wavelength 205.50) was 183033.71. The “Normalized CD spectra” value ([1]; wavelength 206.00) was 99125.43, the “Normalized CD spectra” value ([1]; wavelength 206.50) was 21202.95 and the “Normalized CD spectra” value ([1]; wavelength 207.00) was -58441.14. The “Normalized CD spectra” value ([1]; wavelength 207.50) was -134432.91, the “Normalized CD spectra” value ([1]; wavelength 208.00) was -202839.97 and the “Normalized CD spectra” value ([1]; wavelength 208.50) was -260187.32. The “Normalized CD spectra” value ([1]; wavelength 209.00) was -323573.72, the “Normalized CD spectra” value ([1]; wavelength 209.50) was -382447.61 and the “Normalized CD spectra” value ([1]; wavelength 210.00) was -437399.79. The “Normalized CD spectra” value ([1]; wavelength 210.50) was -489520.86, the “Normalized CD spectra” value ([1]; wavelength 211.00) was -539599.27 and the “Normalized CD spectra” value ([1]; wavelength 211.50) was -576249.85. For the same compound, the “Normalized CD spectra” value ([1]; wavelength 212.00) was -613623.93, the “Normalized CD spectra” value ([1]; wavelength 212.50) was -639995.46 and the “Normalized CD spectra” value ([1]; wavelength 213.00) was -663323.35. The “Normalized CD spectra” value ([1]; wavelength 232.00) was -332238.92, the “Normalized CD spectra” value ([1]; wavelength 232.50) was -324045.26 and the “Normalized CD spectra” value ([1]; wavelength 233.00) was -310464.00. The “Normalized CD spectra” value ([1]; wavelength 233.50) was -306656.69, the “Normalized CD spectra” value ([1]; wavelength 234.00) was -298160.53 and the “Normalized CD spectra” value ([1]; wavelength 234.50) was -288025.21. The “Normalized CD spectra” value ([1]; wavelength 235.00) was -277617.45, the “Normalized CD spectra” value ([1]; wavelength 235.50) was -265647.30 and the “Normalized CD spectra” value ([1]; wavelength 236.00) was -250898.81. The “Normalized CD spectra” value ([1]; wavelength 236.50) was -242222.13, the “Normalized CD spectra” value ([1]; wavelength 237.00) was -231613.39 and the “Normalized CD spectra” value ([1]; wavelength 237.50) was -223355.72. For the same compound, the “Normalized CD spectra” value ([1]; wavelength 238.00) was -218172.86, the “Normalized CD spectra” value ([1]; wavelength 238.50) was -206535.49 and the “Normalized CD spectra” value ([1]; wavelength 239.00) was -191737.01. The “Normalized CD spectra” value ([1]; wavelength 239.50) was -180445.52, the “Normalized CD spectra” value ([1]; wavelength 240.00) was -179664.78 and the “Normalized CD spectra” value ([1]; wavelength 240.50) was -172296.10. The “Normalized CD spectra” value ([1]; wavelength 241.00) was -162102.32, the “Normalized CD spectra” value ([1]; wavelength 241.50) was -148455.67 and the “Normalized CD spectra” value ([1]; wavelength 242.00) was -149233.62. The “Normalized CD spectra” value ([1]; wavelength 242.50) was -139443.53, the “Normalized CD spectra” value ([1]; wavelength 243.00) was -134411.20 and the “Normalized CD spectra” value ([1]; wavelength 243.50) was -135270.09. For the same compound, the “Normalized CD spectra” value ([1]; wavelength 244.00) was -127740.28, the “Normalized CD spectra” value ([1]; wavelength 244.50) was -125334.77 and the “Normalized CD spectra” value ([1]; wavelength 245.00) was -119297.62. The “Normalized CD spectra” value ([1]; wavelength 245.50) was -115863.12, the “Normalized CD spectra” value ([1]; wavelength 246.00) was -113285.78 and the “Normalized CD spectra” value ([1]; wavelength 246.50) was -114529.09. The “Normalized CD spectra” value ([1]; wavelength 247.00) was -113972.59, the “Normalized CD spectra” value ([1]; wavelength 247.50) was -115521.93 and the “Normalized CD spectra” value ([1]; wavelength 248.00) was -110033.91. For the same compound, the “Normalized CD spectra” value ([1]; wavelength 248.50) was -107626.80, the “Normalized CD spectra” value ([1]; wavelength 249.00) was -94087.61 and the “Normalized CD spectra” value ([1]; wavelength 249.50) was -91943.44. For the same compound, the “Normalized CD spectra” value ([1]; wavelength 250.00) was -91987.89, the “Normalized CD spectra” value ([1]; wavelength 250.50) was -83982.51 and the “Normalized CD spectra” value ([1]; wavelength 251.00) was -78786.13. The “Normalized CD spectra” value ([1]; wavelength 251.50) was -77492.66, the “Normalized CD spectra” value ([1]; wavelength 252.00) was -81506.91 and the “Normalized CD spectra” value ([1]; wavelength 252.50) was -74477.64. The “Normalized CD spectra” value ([1]; wavelength 253.00) was -78503.70, the “Normalized CD spectra” value ([1]; wavelength 253.50) was -82822.05 and the “Normalized CD spectra” value ([1]; wavelength 254.00) was -81558.46. The “Normalized CD spectra” value ([1]; wavelength 254.50) was -84392.86, the “Normalized CD spectra” value ([1]; wavelength 255.00) was -84114.71 and the “Normalized CD spectra” value ([1]; wavelength 255.50) was -85462.25. For the same compound, the “Normalized CD spectra” value ([1]; wavelength 256.00) was -87106.95, the “Normalized CD spectra” value ([1]; wavelength 256.50) was -89048.81 and the “Normalized CD spectra” value ([1]; wavelength 257.00) was -91287.84. For the same compound, the “Normalized CD spectra” value ([1]; wavelength 257.50) was -93824.03 and the “Normalized CD spectra” value ([1]; wavelength 258.00) was -96657.38.
